Data set [1] relates to SMN2 minigene mRNA (SMN2-A minigene) in HEK293H cells. The data set is described as follows: SMN2 minigene mRNA splicing RT-qPCR assay in cultured cells. It counts as cell-based, human. Particulars: Homo sapiens, HEK293-H; concentration increasing full length SMN2 mRNA 1.5-fold relative to vehicle-treated cells; HEK293H cells with SMN2-A minigene, 24 hours, 7-point concentration data; read-out: EC1.5x for production of full length SMN2 mRNA. In short, it runs like this: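 Potency reflects the concentration that lifts full-length SMN2 minigene mRNA 1.5-fold above vehicle in stably transfected HEK293H cells after 24 h of treatment. Transcript abundance came from RT-qPCR as (1+E)^−Ct, normalized to GAPDH; endogenous SMN1/SMN2 are not detected.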
For orientation: Quantitative PCR measures a nucleic acid by following its amplification.

For data set [2], the system named is Smn protein in SMA patient fibroblast cells (GM03813). The experiment in a line: Smn protein assay in cultured cells (SMN HTRF). Conditions: SMA patient fibroblast cells, 48 hours; for EC1.5x for Smn protein expression: 7-point concentration curve, SMN HTRF, concentration producing 1.5 times Smn protein vs DMSO vehicle control; for maximum fold (Fold) increase of Smn protein: 7-point concentration data, fold relative to vehicle control. It counts as cell-based, human. In short, it runs like this:
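Smn protein abundance in treated SMA fibroblasts was measured by HTRF after 48 h compound exposure. The reported EC1.5× is the concentration producing 1.5 times vehicle Smn levels.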
In general terms: TR-FRET usually uses a lanthanide donor and a delayed reading to cut background.

The structures appear in SMILES notation.

One may read the melting point as the temperature, or range, at which the solid turns liquid. Turning to `O=c1cc(-c2cccc([N+](=O)[O-])c2)nc2ccc(N3CCNCC3)cn12` [Compound 62, 2-(3-nitrophenyl)-7-(piperazin-1-yl)-4H-pyrido[1,2-a]pyrimidin-4-one], the melting point was 175 °C (dec.). Also, the EC (1.5-fold increase) in data set [1] lay within 0.1 to 0.3 µM. Besides, in data set [2], the “EC1.5x for Smn protein expression” value is “*** (an EC1.5× between >0.3 μM and ≤1 μM is indicated by three stars (***))”; the “maximum fold (Fold) increase of Smn protein” value (from here on “maximum fold (Fold) increase”) is recorded as “***** (a fold increase >1.65 is indicated by five stars (*****))”.
`COc1ccc(-c2cc(=O)n3cc(N4C[C@H]5CNC[C@H]5C4)ccc3n2)cc1F` [Compound 212, 2-(3-fluoro-4-methoxyphenyl)-7-[(3aR,6aS)-hexahydropyrrolo[3,4-c]pyrrol-2(1H)-yl]-4H-pyrido[1,2-a]pyrimidin-4-one] had a melting point of 195 to 200 °C. In data set [1], the EC (1.5-fold increase) was 0.1 to 0.3 µM. Further, in data set [2], the “EC1.5x for Smn protein expression” value was “**** (an EC1.5x≤0.3 μM is indicated by four stars (****))”; the “maximum fold (Fold) increase” value was “**** (a fold increase between >1.5 and ≤1.65 is indicated by four stars (****))”.
Consider `CN[C@H]1CC[C@@H](c2ccc3nc(-c4ccc(OC)c(OC)c4)cc(=O)n3c2)CC1` [Compound 405, 2-(3,4-dimethoxyphenyl)-7-[cis-4-(methylamino)cyclohexyl]-4H-pyrido[1,2-a]pyrimidin-4-one], for which the melting point was in the range of 156 to 158 °C. In addition, in data set [1], the EC (1.5-fold increase) was in the range of 0.1 to 0.3 µM. In addition, in data set [2], the “EC1.5x for Smn protein expression” value is “*** (an EC1.5× between >0.3 μM and ≤1 μM is indicated by three stars (***))”; the “maximum fold (Fold) increase” value is “**** (a fold increase between >1.5 and ≤1.65 is indicated by four stars (****))”.
Turning to `CCN1CCC(c2ccc3nc(-c4ccc5c(cnn5C)c4)cc(=O)n3c2)CC1` [Compound 604, 7-(1-ethylpiperidin-4-yl)-2-(1-methyl-1H-indazol-5-yl)-4H-pyrido[1,2-a]pyrimidin-4-one], the melting point was in the range of 184 to 186 °C. Further, the EC (1.5-fold increase) in data set [1] is 0.3 to 1 µM. In data set [2], the “EC1.5x for Smn protein expression” value is “**** (an EC1.5x≤0.3 μM is indicated by four stars (****))” and the “maximum fold (Fold) increase” value is “***** (a fold increase >1.65 is indicated by five stars (*****))”.
In turn, `Cc1cn2nc(-c3cc(=O)n4cc(N5CCC(N6CCN(C)CC6)CC5)ccc4n3)cc2c(C)n1` [Compound 427, 2-(4,6-dimethylpyrazolo[1,5-a]pyrazin-2-yl)-7-[4-(4-methylpiperazin-1-yl)piperidin-1-yl]-4H-pyrido[1,2-a]pyrimidin-4-one] came in with a melting point of 198 to 200 °C. Besides, the EC (1.5-fold increase) in data set [1] was in the range of 1 to 3 µM. In data set [2], the “EC1.5x for Smn protein expression” value is “* (An EC1.5× for Smn protein expression between >3 μM and ≤10 μM is indicated by one star (*))”; the “maximum fold (Fold) increase” value was “*** (a fold increase between >1.35 and ≤1.5 is indicated by three stars (***))”.
Compound `CCc1nc(C)cn2nc(-c3cc(=O)n4cc(N5C[C@H]6CNC[C@H]6C5)ccc4n3)cc12` [Compound 747, 2-(4-ethyl-6-methylpyrazolo[1,5-a]pyrazin-2-yl)-7-[(3aR,6aS)-hexahydropyrrolo[3,4-c]pyrrol-2(1H)-yl]-4H-pyrido[1,2-a]pyrimidin-4-one] registered a melting point of 246 to 249 °C. The EC (1.5-fold increase) in data set [1] is below 0.1 µM. Besides, in data set [2], the “EC1.5x for Smn protein expression” value is given as “**** (an EC1.5x≤0.3 μM is indicated by four stars (****))” and the “maximum fold (Fold) increase” value is listed as “***** (a fold increase >1.65 is indicated by five stars (*****))”.
For the compound `Cc1cn2cc(-c3cc(=O)n4cc(N5CCN(CCO)[C@@H](C)C5)ccc4n3)cc(F)c2n1` [Compound 539, 2-(8-fluoro-2-methylimidazo[1,2-a]pyridin-6-yl)-7-[(3S)-4-(2-hydroxyethyl)-3-methylpiperazin-1-yl]-4H-pyrido[1,2-a]pyrimidin-4-one], the melting point lay in the range of 270 to 274 °C. Further, in data set [1], the EC (1.5-fold increase) is below 0.1 µM. Besides, in data set [2], the “EC1.5x for Smn protein expression” value is given as “**** (an EC1.5x≤0.3 μM is indicated by four stars (****))”; the “maximum fold (Fold) increase” value was “**** (a fold increase between >1.5 and ≤1.65 is indicated by four stars (****))”.
For `Cc1cn2nc(-c3cc(=O)n4cc(N5CCN[C@@H](C)C5)ccc4n3)cc2c(C)n1` [Compound 121, 2-(4,6-dimethylpyrazolo[1,5-a]pyrazin-2-yl)-7-[(3S)-3-methylpiperazin-1-yl]-4H-pyrido[1,2-a]pyrimidin-4-one], the melting point fell in the range of 192 to 194 °C. Besides, the EC (1.5-fold increase) in data set [1] is below 0.1 µM. In data set [2], the “EC1.5x for Smn protein expression” value is listed as “**** (an EC1.5x≤0.3 μM is indicated by four stars (****))” and the “maximum fold (Fold) increase” value is reported as “***** (a fold increase >1.65 is indicated by five stars (*****))”.
In turn, `C[C@@H]1CN(c2ccc3nc(-c4ccc5c(c4)OCCO5)cc(=O)n3c2)C[C@H](C)N1` [Compound 37, 2-(2,3-dihydro-1,4-benzodioxin-6-yl)-7-[(3R,5S)-3,5-dimethylpiperazin-1-yl]-4H-pyrido[1,2-a]pyrimidin-4-one] had a melting point of 247 to 250 °C. Further, the EC (1.5-fold increase) in data set [1] lay in the range of 1 to 3 µM. Moreover, in data set [2], the “maximum fold (Fold) increase” value is reported as “* (A maximum fold increase of ≤1.2 is indicated by one star (*))”.
The corresponding values for `O=c1cc(-c2cccc(OC(F)(F)F)c2)nc2ccc(N3CCNCC3)cn12` [Compound 80, 7-(piperazin-1-yl)-2-[3-(trifluoromethoxy)phenyl]-4H-pyrido[1,2-a]pyrimidin-4-one] are 140 to 143 °C, 1 to 3 µM and “* (A maximum fold increase of ≤1.2 is indicated by one star (*))”.
Compound `Cc1cn2nc(-c3cc(=O)n4cc(N5CCN6CCC[C@@H]6C5)ccc4n3)cc2cn1` [Compound 467, 7-[(8aR)-hexahydropyrrolo[1,2-a]pyrazin-2(1H)-yl]-2-(6-methylpyrazolo[1,5-a]pyrazin-2-yl)-4H-pyrido[1,2-a]pyrimidin-4-one] had a melting point of 240 to 250 °C. Besides, the EC (1.5-fold increase) in data set [1] was below 0.1 µM. In addition, in data set [2], the “EC1.5x for Smn protein expression” value is “**** (an EC1.5x≤0.3 μM is indicated by four stars (****))” and the “maximum fold (Fold) increase” value was “***** (a fold increase >1.65 is indicated by five stars (*****))”.
With `COc1ccc(-c2ccc3nc(N4CC[C@@H](N(C)C)C4)cc(=O)n3c2)cc1F` [Compound 277, 2-[(3R)-3-(dimethylamino)pyrrolidin-1-yl]-7-(3-fluoro-4-methoxyphenyl)-4H-pyrido[1,2-a]pyrimidin-4-one], the melting point was in the range of 167 to 170 °C. Further, the EC (1.5-fold increase) in data set [1] fell in the range of 1 to 3 µM. Moreover, in data set [2], the “maximum fold (Fold) increase” value is “*** (a fold increase between >1.35 and ≤1.5 is indicated by three stars (***))”.
In turn, `Cc1cn2nc(-c3cc(=O)n4cc(N5C[C@@H](C)N(C)[C@@H](C)C5)ccc4n3)cc2c(C)n1` [Compound 259, 2-(4,6-dimethylpyrazolo[1,5-a]pyrazin-2-yl)-7-[(3R,5S)-3,4,5-trimethylpiperazin-1-yl]-4H-pyrido[1,2-a]pyrimidin-4-one] displayed a melting point of 254 to 260 °C. The EC (1.5-fold increase) in data set [1] is below 0.1 µM. Besides, in data set [2], the “EC1.5x for Smn protein expression” value was “*** (an EC1.5× between >0.3 μM and ≤1 μM is indicated by three stars (***))”; the “maximum fold (Fold) increase” value was “**** (a fold increase between >1.5 and ≤1.65 is indicated by four stars (****))”.

The record behind these values is US11753407B2, “Compounds for treating spinal muscular atrophy” (PTC Therapeutics, Inc., priority 2012, dated 2023).
